# Assay results from patent publication US6485931B2, “CHOLESTEROL DEHYDROGENASE, COPROSTAN-3-ONE DEHYDROGENASE AND 4-CHOLESTEN-3-ONE DEHYDROGENASE, COMPOSITIONS CONTAINING THE DEHYDROGENASES, AND METHOD FOR REDUCING AMOUNT OF CHOLESTEROL USING THE COMPOSITIONS” (Kyowa Hakko Kogyo Co., Ltd., priority 1996, dated 2002).
# Experiments:
# [1] = tested on: 4-cholesten-3-one dehydrogenase B; assay: 4-cholesten-3-one dehydrogenase B titer: coprostan-3-one produced, TLC/FID; assay type: biochemical, Eubacterium sp. CP 1; details: for relative activity (enzyme activity without adding inhibitor is 100): 1 mM inhibitor, 30 minutes, pH 7.5, 37° C.; for relative activity in comparison with the case of no addition: 1 mM metal salt
# Procedure: (§1) An enzyme solution was allowed to stand still at 37° C. for 15 minutes using various pH buffer solutions, and remaining activity was measured, and pH range in which activity was not less than 50% of the maximum active value was regarded as a stable pH range. (The following is the same.)
# With 0.2 ml of 3 mM 4-cholesten-3-one micelle solution containing 0.33% Triton X-100 is mixed 0.3 ml of a 20 mM Tris-hydrochloric acid buffer solution (pH 7.5) containing 1.0% Triton X-100and 1 mM DTT, and 0.1 ml of a10 mM NADH solution, the resulted mixture is added 0.05 ml of an enzyme solution, reacted for 30 minutes at 37° C., and then added 0.1 ml of chloroform to extract sterol and to terminate the reaction.
# (§2) Then, the quantity of coprostan-3-one produced in the reaction solution is determined using TLC/FID iatroscan. The quantity of coprostan-3-one produced in the reaction solution is determined likewise using an inactivated enzyme which has been previously heated as a control. The enzyme activity which produces 1 μmol of coprostan-3-one per one minute is regarded as 1 unit.
# cholesterol in meat = assay: enzymatic conversion to coprostanol in aging period of meat (Embodiment 10); assay type: biochemical; details: minced beef, each enzyme 0.2 unit/g meat, PL-D 2 unit/g meat, 0.5 ml 20% nicotinamide, aged 7 days
# Procedure: 10 g of beef 6 hours after slaughtering was made into minced meat, and to this was added the cholesterol dehydrogenase obtained in Embodiment 5 (0.2 unit/g meat), the 4-cholesten-3-one dehydrogenase obtained in Embodiment 6 (0.2 unit/g meat) and the coprostan-3-one dehydrogenase obtained in Embodiment 7 (0.2 unit/g meat) and mixed, and the mixture was aged at 5° C. for 7 days. Also, mixtures to which 0.5 ml of a 20% aqueous nicotinamide solution had been further added, meat to which phospholipase (2 unit/g meat) had been further added and meat to which both of them had been further added at the mixing were aged at […] for 7 days, respectively.
# After aging, the meat was freeze-dried and lipid components were extracted with a 25 ml extraction solvent (chloroform:methanol=2:1). Regarding the resulting extracted sample, the amount of converted sterol products was determined using gas chromatography (manufactured by GL Science, TC-1701, column φ0.25 […]×30 m). In Table 5, PL-D represents phospholipase D and COP represents coprostanol, respectively.
# [2] = tested on: coprostan-3-one dehydrogenase A; assay: coprostan-3-one dehydrogenase A titer: coprostanol produced, TLC/FID; assay type: biochemical, Eubacterium sp. CP 2; details: for relative activity (enzyme activity without adding inhibitor defined as 100): 1 mM inhibitor, 30 minutes, pH 7.5, 37° C.; for relative activity in comparison with the case of no addition: 1 mM metal salt
# Procedure: as §1
# […] The enzyme solution was mixed with equal amounts of activating fractions and left for 15 minutes at 5° C., then used.
# (§3) Then, the quantity of coprostanol produced in the reaction solution is determined using TLC/FID iatroscan. The quantity of coprostanol in the reaction solution is determined likewise using an inactivated enzyme which has been previously heated as a control. The enzyme activity which produces 1 μmol of coprostanol per one minute is regarded as 1 unit.
# [3] = tested on: cholesterol dehydrogenase B; assay: cholesterol dehydrogenase B titer: 4-cholesten-3-one produced, TLC/FID; assay type: biochemical, Eubacterium sp. CP 1; details: for relative activity (enzyme activity without adding inhibitor is 100): 1 mM inhibitor, 30 minutes, pH 7.5, 37° C.; for relative activity as substrate (activity of cholesterol defined as 100): substrate specificity; for relative activity in comparison to the case of no addition: 1 mM metal salt
# Procedure: as §1
# With 0.2 ml of 3 mM cholesterol micelle solution containing 0.33% Triton X-100 is mixed 0.3 ml of a 50 mM phosphoric acid buffer solution (pH 7.5) containing 1.0% Triton X-100 and 1 mM DTT, and 0.1 ml of a 10 mM NADP solution, to the resulted mixture is added 0.05 ml of an enzyme solution, reacted for 30 minutes at 37° C., and then added 0.1 ml of chloroform to extract sterol and to terminate the reaction.
# Then, the quantity of 4-cholesten-3-one produced in the reaction solution is determined using TLC/FID iatroscan. […] The enzyme activity which produces 1 μmol of 4-cholesten-3-one per one minute is regarded as 1 unit.
# [4] = tested on: coprostan-3-one dehydrogenase B; assay: coprostan-3-one dehydrogenase B titer: coprostanol produced, TLC/FID; assay type: biochemical, Eubacterium sp. CP 1; details: for relative activity (enzyme activity without adding inhibitor is 100): 1 mM inhibitor, 30 minutes, pH 7.5, 37° C.; for relative activity in comparison to the case of no addition: 1 mM metal salt
# Procedure: as §1
# With 0.2 ml of 3 mM coprostan-3-one micelle solution containing 0.33% Triton X-100 is mixed 0.3 ml of a 20 mM Tris-hydrochloric acid buffer solution (pH 7.5) containing 1.0% Triton X-100 and 1 mM DTT, and 0.1 ml of a 10 mM NADPH solution, to the resulted mixture is added 0.05 ml of an enzyme solution, reacted for 30 minutes at 37° C., and then added 0.1 ml of chloroform to extract sterol and to terminate the reaction.
# as §3
# [5] = tested on: cholesterol dehydrogenase A; assay: cholesterol dehydrogenase A titer: 4-cholesten-3-one produced from cholesterol micelle, TLC/FID; assay type: biochemical, Eubacterium sp. CP 2; details: for relative activity (enzyme activity without adding inhibitor defined as 100): 1 mM inhibitor, 30 minutes, pH 7.5, 37° C.; for relative activity as substrate (activity of cholesterol is 100): substrate specificity; for relative activity in comparison with the case of no addition: 1 mM metal salt
# Procedure: as §1
# With 0.2 ml of 3 mM cholesterol micelle solution containing 0.33% Triton X-100 is mixed 0.3 ml of a 20 mM piperazine-N,N′-bis-(2-ethane […]) (hereinafter, referred to as “PIPES”) buffer solution (pH 7.5) containing 0.5% Triton X-100 and 1 mM dithiothreitol (hereinafter, referred to as “DTT”), and 0.1 ml of a 10 mM […] solution, the resulted mixture is added 0.05 ml of an enzyme solution, reacted for 30 minutes at 37° C., and then added 0.1 ml of chloroform to extract sterol and to terminate the reaction.
# as §2, with “4-cholesten-3-one” for “coprostan-3-one”
# [6] = tested on: 4-cholesten-3-one dehydrogenase A; assay: 4-cholesten-3-one dehydrogenase A titer: coprostan-3-one produced, TLC/FID; assay type: biochemical, Eubacterium sp. CP 2; details: for relative activity (enzyme activity without adding inhibitor defined as 100): 1 mM inhibitor, 30 minutes, pH 7.5, 37° C.; for relative activity in comparison to the case of no addition: 1 mM metal salt; for relative activity as substrate (activity of 4-cholesten-3-one defined as 100): substrate specificity
# Procedure: as §1
# With 0.2 ml of 3 mM 4-cholesten-3-one micelle solution containing 0.33% Triton X-100 is mixed 0.3 ml of a 20 mM PIPES buffer solution (pH 7.5) containing 0.5% Triton X-100 and 1 mM DTT, and 0.1 ml of a 10 mM NADH solution, the resulted mixture is added 0.05 ml of an enzyme solution, and reacted for 30 minutes at 37° C., and then added 0.1 ml of chloroform to extract sterol and to terminate the reaction.
# as §2
# [7] = in vivo; cited from earlier work
molecule,measurement,setting,value
CC(C)CCC[C@@H](C)[C@H]1CC[C@H]2[C@@H]3CC=C4CC(=O)CC[C@]4(C)[C@H]3CC[C@]12C [5-cholestenon-3-one],relative activity as substrate (activity of 4-cholesten-3-one defined as 100),[1]; substrate specificity,0
"NC(=O)c1cccnc1 [Nicotinamide, nicotinamide]",COP conversion (%),cholesterol in meat,0%
"O=S(=O)(O)c1cc[c]([Hg][Cl])cc1 [PCMB, p-chloro mercury phenylsulfonate]",relative activity (enzyme activity without adding inhibitor defined as 100),[2],41
same,relative activity (enzyme activity without adding inhibitor is 100),[3],0
same,relative activity (enzyme activity without adding inhibitor is 100),[1],0
same,relative activity (enzyme activity without adding inhibitor is 100),[4],0
same,relative activity (enzyme activity without adding inhibitor defined as 100),[5],0
same,relative activity (enzyme activity without adding inhibitor defined as 100),[6],47
CC(C)[C@H](C)CC[C@@H](C)[C@H]1CC[C@H]2[C@@H]3CC=C4C[C@@H](O)CC[C@]4(C)[C@H]3CC[C@]12C [campesterol],relative activity as substrate (activity of cholesterol defined as 100),[3],50
same,relative activity as substrate (activity of cholesterol is 100),[5],74
[Cl][Cu][Cl] [copper chloride],relative activity in comparison with the case of no addition,[2],2.7
same,relative activity in comparison to the case of no addition,[3],0
same,relative activity in comparison with the case of no addition,[1],0
same,relative activity in comparison to the case of no addition,[4],0
same,relative activity in comparison with the case of no addition,[5],3.2
same,relative activity in comparison to the case of no addition,[6],0
CC(C)CCC[C@@H](C)[C@H]1CC[C@H]2[C@@H]3CC[C@@H]4C[C@@H](O)CC[C@]4(C)[C@H]3CC[C@]12C [coprostanol],absorbability through the intestinal tract,[7],very low
NC(=O)CI [iodine acetamide],relative activity (enzyme activity without adding inhibitor defined as 100),[2],82
same,relative activity (enzyme activity without adding inhibitor is 100),[1],99
same,relative activity (enzyme activity without adding inhibitor is 100),[4],95
same,relative activity (enzyme activity without adding inhibitor defined as 100),[5],82
same,relative activity (enzyme activity without adding inhibitor defined as 100),[6],94
O=C(O)CI [iodine acetic acid],relative activity (enzyme activity without adding inhibitor is 100),[3],98
"O=P([O-])([O-])[O-].[Na+].[Na+].[Na+] [phosphate ion, trisodium phosphate]",effect on conversion reaction by cholesterol dehydrogenase B,[3],remarkably activated
CC(=O)[C@H]1CC[C@H]2[C@@H]3CCC4=CC(=O)CC[C@]4(C)[C@H]3CC[C@]12C [progesterone],relative activity as substrate (activity of 4-cholesten-3-one defined as 100),[6],41
CC[C@H](/C=C/[C@@H](C)[C@H]1CC[C@H]2[C@@H]3CC=C4C[C@@H](O)CC[C@]4(C)[C@H]3CC[C@]12C)C(C)C [stigmasterol],relative activity as substrate (activity of cholesterol defined as 100),[3],39
same,relative activity as substrate (activity of cholesterol is 100),[5],30
C[C@]12CC[C@H]3[C@@H](CCC4=CC(=O)CC[C@@]43C)[C@@H]1CC[C@@H]2O [testosterone],relative activity as substrate (activity of 4-cholesten-3-one defined as 100),[6],0
CC[C@H](CC[C@@H](C)[C@H]1CC[C@H]2[C@@H]3CC=C4C[C@@H](O)CC[C@]4(C)[C@H]3CC[C@]12C)C(C)C [β sitosterol],relative activity as substrate (activity of cholesterol defined as 100),[3],67
same,relative activity as substrate (activity of cholesterol is 100),[5],38
iron chloride,relative activity in comparison with the case of no addition,[2],12
same,relative activity in comparison to the case of no addition,[3],0
same,relative activity in comparison with the case of no addition,[1],107
same,relative activity in comparison to the case of no addition,[4],105
same,relative activity in comparison with the case of no addition,[5],95
same,relative activity in comparison to the case of no addition,[6],110
prognerone,relative activity as substrate (activity of 4-cholesten-3-one defined as 100),[6],0
